12 compounds from ChEMBL document CHEMBL5136994, “Conjugates of Porphyrinoid-Based Photosensitizers with Cytotoxic Drugs: Current Progress and Future Directions toward Selective Photodynamic Therapy” (J Med Chem, 2022) can be followed below.

The subject of assay [1] is HeLa. Put plainly: Photodynamic cytotoxicity against human HeLa cells assessed as cell growth inhibition incubated for 4 hrs followed by fresh medium replacement without compound upon 6.95 J/cm2 light irradiation for 15 mins and further incubated for 44 hrs by resazurin based fluorimetry. The format is functional. The conditions noted are these: light or radiation study. (Resazurin is reduced to fluorescent resorufin, in cell work by metabolically active cells.)

Assay [2] deals with HeLa. Briefly: Cytotoxicity against human HeLa cells assessed as cell growth inhibition incubated for […] followed by fresh medium replacement without compound and further incubated for 44 hrs under dark condition by resazurin based fluorimetry. The format is functional.
Assay [3] relates to A549. Briefly: Photodynamic cytotoxicity against human A549 cells assessed as cell growth inhibition upon light irradiation by WST assay. The format is functional, cell-based.
Assay [4] relates to A549. Put plainly: Cytotoxicity against human A549 cells assessed as cell growth inhibition by WST assay. The format is functional, cell-based.
Assay [5] has as its system UMUC3. Briefly: Photodynamic cytotoxicity against human UMUC3 cells assessed as cell growth inhibition upon 1 J/cm2 light irradiation. The format is functional, cell-based. The settings on record: UMUC3, light or radiation study.
In assay [6] the test system is FaDu. Put plainly: Photodynamic cytotoxicity against human FaDu cells assessed as cell growth inhibition upon 1 J/cm2 light irradiation. The format is functional, cell-based. The conditions noted are these: light or radiation study.
In assay [7] the test system is NCI-H460. Put plainly: Photodynamic cytotoxicity against human H460M2 cells assessed as cell growth inhibition incubated for 24 hrs followed by medium replacement without compound upon 1 J/cm2 light irradiation and measured after 24 hrs by MTT assay. The format is functional, cell-based.
In assay [8] the test system is HBL-100. Put plainly: Photodynamic cytotoxicity against human HBL-100 cells assessed as cell growth inhibition incubated for 24 hrs followed by medium replacement without compound upon 1 J/cm2 light irradiation and measured after 24 hrs by MTT assay. The format is functional, cell-based. Background: Tetrazolium dyes change colour on reduction, which living cells bring about.

Assay [9] concerns NCI-H460. Briefly: Cytotoxicity against human H460M2 cells assessed as cell growth inhibition incubated for 24 hrs by MTT assay. The format is functional, cell-based.
The subject of assay [10] is HBL-100. Briefly: Photodynamic cytotoxicity against human HBL-100 cells assessed as cell growth inhibition incubated for 24 hrs by MTT assay. The format is functional, cell-based.
The test system of assay [11] is HeLa. Put plainly: Cytotoxicity against human HeLa cells assessed as cell growth inhibition incubated for 24 hrs by MTT assay. The format is functional, cell-based.
For assay [12], the system named is HeLa. Put plainly: Photodynamic cytotoxicity against human HeLa cells assessed as cell growth inhibition incubated for 24 hrs followed by medium replacement without compound upon 1 J/cm2 light irradiation and measured after 24 hrs by MTT assay. The format is functional, cell-based.
Assay [13] concerns A549. Put plainly: Photodynamic cytotoxicity against human A549 cells assessed as cell growth inhibition upon light irradiation. The format is functional, cell-based. The conditions noted are these: A549, light or radiation study.
The test system of assay [14] is A549. Briefly: Cytotoxicity against human A549 cells assessed as cell growth inhibition. The format is functional, cell-based.
Assay [15] concerns UMUC3. Put plainly: Photodynamic cytotoxicity against human UMUC3 cells assessed as cell growth inhibition upon light irradiation. The format is functional, cell-based. The settings on record: UMUC3, light or radiation study.
The test system of assay [16] is FaDu. Put plainly: Photodynamic cytotoxicity against human FaDu cells assessed as cell growth inhibition upon light irradiation. The format is functional, cell-based. The conditions noted are these: light or radiation study.
Where [17] appears, read: Homo sapiens, A549, light or radiation study.

Each structure is given as a SMILES string.

In the case of `C1=Cc2nc1c(-c1ccncc1)c1ccc([nH]1)c(-c1ccncc1)c1nc(c(-c3ccncc3)c3ccc([nH]3)c2-c2ccncc2)C=C1`, the figures for the concentration for half-maximal inhibition (IC50) with HeLa [1] and in the assay on HeLa [2] were 5800 nM and > 100000 nM, respectively.

As for `C[n+]1ccc(-c2c3nc(c(-c4cc[n+](C)cc4)c4ccc([nH]4)c(-c4cc[n+](C)cc4)c4nc(c(-c5ccc(OCc6cn(CCc7c8[nH]c9ccccc9c8cc[n+]7C)nn6)cc5)c5ccc2[nH]5)C=C4)C=C3)cc1`, the IC50 (as a rule, the concentration that inhibits the measured activity by half) is 60 nM in the assay with A549 [3] (a549) and > 100000 nM in the assay on A549 [4] (a549).

For the compound `CCc1c(C)c2cc3nc(cc4nc(c5c6[nH]c(cc1[nH]2)c(C)c6C(=O)C5)[C@@H](CCC(=O)O)[C@@H]4C)C(C)=C3C(C)OCc1cccc(C#Cc2cccc(Nc3ncnc4cc(OCCOC)c(OCCOC)cc34)c2)c1` (stereo partly drawn), the results for the IC50 with UMUC3 [5] and in the assay on FaDu [6] were 54 nM and 31 nM, respectively.

For `CCc1c(C)c2cc3nc(cc4nc(c5c6[nH]c(cc1[nH]2)c(C)c6C(=O)C5)[C@@H](CCC(=O)OC)[C@@H]4C)C(C)=C3C(C)OCc1ccc(C#Cc2cccc(Nc3ncnc4cc(OCCOC)c(OCCOC)cc34)c2)cc1` (stereo partly drawn), the half-maximal inhibitory concentration (IC50) in the assay on UMUC3 [5] was 21 nM; in the assay with FaDu [6] it was 60 nM.

Take `C[n+]1ccc(-c2c3nc(c(-c4cc[n+](C)cc4)c4ccc([nH]4)c(-c4cc[n+](C)cc4)c4nc(c(-c5ccc(C(=O)NCCOCCOCCNC(=O)CN6CCNCCNCC6)cc5)c5ccc2[nH]5)C=C4)C=C3)cc1`: the IC50 in the assay with NCI-H460 [7], with HBL-100 [8], with NCI-H460 [9], in the assay on HBL-100 [10], in the assay on HeLa [11] and in the assay on HeLa [12] was > 100000 nM in each case.

As to `CCc1c(C)c2cc3nc(cc4nc(c5c6[nH]c(cc1[nH]2)c(C)c6C(=O)C5)[C@@H](CCC(=O)OC)[C@@H]4C)C(C)=C3C(C)OCc1cccc(C#Cc2cccc(Nc3ncnc4cc(OCCOC)c(OCCOC)cc34)c2)c1` (stereo partly drawn), the 50% inhibitory concentration (IC50) with UMUC3 [5] came out at 59 nM; in the assay with FaDu [6] it was 35 nM.

As for `C[n+]1ccc(-c2c3nc(c(-c4cc[n+](C)cc4)c4ccc([nH]4)c(-c4cc[n+](C)cc4)c4nc(c(-c5cc[n+](C)cc5)c5ccc2[nH]5)C=C4)C=C3)cc1`, the concentration for half-maximal inhibition (IC50) with A549 [3] (setting [17]) was 300 nM; in the assay with A549 [4] (Homo sapiens, A549), > 100000 nM.

`C1=Cc2nc1c(-c1ccncc1)c1ccc([nH]1)c(-c1ccncc1)c1nc(c(-c3ccc(OCc4cn(CCc5nccc6c5[nH]c5ccccc56)nn4)cc3)c3ccc([nH]3)c2-c2ccncc2)C=C1`: the IC50 with A549 [3] (setting [17]) is 43100 nM; in the assay on A549 [4] (Homo sapiens, A549), > 100000 nM.

`C1=Cc2nc1c(-c1ccccc1)c1ccc([nH]1)c(-c1ccccc1)c1nc(c(-c3ccc(OCc4cn(CC[n+]5c6ccccc6cc6[nH]c7ccccc7c65)nn4)cc3)c3ccc([nH]3)c2-c2ccccc2)C=C1`: the half-inhibitory concentration (IC50) stood at 2500 nM in the assay on A549 [13] and 33600 nM with A549 [14].

For `CCc1c(C)c2cc3nc(cc4nc(c5c6[nH]c(cc1[nH]2)c(C)c6C(=O)C5)[C@@H](CCC(=O)OC)[C@@H]4C)C(C)=C3COCc1cccc(C#Cc2cccc(Nc3ncnc4cc(OCCOC)c(OCCOC)cc34)c2)c1`, the concentration for half-maximal inhibition (IC50) is 76 nM in the assay on UMUC3 [5] and 23 nM with FaDu [6].

`CCCCCCOC(C)C1=C(C)c2cc3nc(c4c5[nH]c(cc6[nH]c(cc1n2)c(C)c6CC)c(C)c5C(=O)C4)[C@@H](CCC(=O)NCCCCn1cc(-c2cccc(Nc4ncnc5cc(OCCOC)c(OCCOC)cc45)c2)nn1)[C@@H]3C` (stereo partly drawn): the IC50 in the assay on UMUC3 [5] was found to be 20 nM; with FaDu [6], 18 nM.

Turning to `CCCCCCOC(C)C1=C(C)c2cc3nc(c4c5[nH]c(cc6[nH]c(cc1n2)c(C)c6CC)c(C)c5C(=O)C4)[C@@H](CCC(=O)O)[C@@H]3C` (stereo partly drawn), the half-inhibitory concentration (IC50) in the assay with UMUC3 [15] came out at 68 nM; with FaDu [16] it was 43 nM.
